Where two headings read alike, the source gives them in different places. Blank lines part the entries; values can stand above or below the molecule they belong to.
Legend:
[1] = target: T1, PLK1 phosphorylation of TCTP (Homo sapiens, UniProt P53350); assay: pTCTP (Ser46) in patient blood PBMC before and 3 hours after onvansertib; assay type: in vivo; parameters: Protein extracts were prepared from PBMC and cell lines using M-PER buffer; from tissue; host or cells: peripheral blood mononuclear cells from AML patients' blood; conditions: for decrease in pTCTP in patient blood: three patients, as early as three hours
T1 sequence (P53350 whole entry): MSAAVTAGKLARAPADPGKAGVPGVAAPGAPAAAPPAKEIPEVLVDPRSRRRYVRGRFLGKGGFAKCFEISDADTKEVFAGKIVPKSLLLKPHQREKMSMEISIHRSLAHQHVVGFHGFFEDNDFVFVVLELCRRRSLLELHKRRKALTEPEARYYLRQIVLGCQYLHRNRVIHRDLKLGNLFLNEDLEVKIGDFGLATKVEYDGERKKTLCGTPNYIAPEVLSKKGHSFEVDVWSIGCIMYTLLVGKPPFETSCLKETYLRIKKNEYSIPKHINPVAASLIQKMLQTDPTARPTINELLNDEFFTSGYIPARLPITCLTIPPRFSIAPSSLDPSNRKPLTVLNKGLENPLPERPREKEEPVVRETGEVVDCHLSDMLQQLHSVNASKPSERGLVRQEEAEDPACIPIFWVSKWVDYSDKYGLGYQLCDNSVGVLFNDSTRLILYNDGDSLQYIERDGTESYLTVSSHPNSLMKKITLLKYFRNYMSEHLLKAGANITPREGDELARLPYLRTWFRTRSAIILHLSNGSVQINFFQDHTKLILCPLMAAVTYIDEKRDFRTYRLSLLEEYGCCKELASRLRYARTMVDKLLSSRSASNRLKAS
Method: Determination of phosphorylation of serine 46 of TCTP in blood was as follows. Peripheral blood mononuclear cells (PBMC) were isolated from a Cellsave blood tube (Menarini Silicon Biosystems) using Leucosep centrifuge tubes (VWR) and Histopaque-1077 (Sigma) according to the manufacturer's recommendations.
(§1) Protein extracts were prepared from PBMC and cell lines using M-PER buffer (ThermoFisher) with 150 mM NaCl and 1× protease and phosphatase inhibitors cocktails (ThermoFisher). Protein concentration was measured with the Pierce BCA protein assay kit (ThermoFisher).
(§2) Western blots were performed as Simple Western™ assays using the Wes system (ProteinSimple), a combination of capillary electrophoresis and immunodetection techniques, following the manufacturer's protocols. Briefly, extracts with equal protein concentration were mixed with 0.1× sample buffer and 5× fluorescent master mix. Denatured protein samples, biotinylated ladder (ProteinSimple), primary antibodies, horseradish peroxidase (HRP)-conjugated secondary antibody (ProteinSimple), chemiluminescence substrate and wash buffer were dispensed into respective wells of the assay plate and placed in Wes equipment. Primary antibodies were purchased from Cell Signaling Technology: phospho-TCTP-Ser46 (#5251) and TCTP (#5128), and used at a concentration of 1:50. Quantitative analysis was performed using Compass software (ProteinSimple). Signal intensity (area) of pTCTP was normalized to the peak area of TCTP and reported as % pTCTP.
PLK1 inhibition in patients was assessed in blood taken 3-hours following administration of onvansertib at peak concentration (Cmax).
Blood samples were collected before, and 3 hours after, onvansertib treatment from patients enrolled in the trial described in Example 1. The onvansertib treatments were 12, 18, 27, or 40 mg/m^2. pTCTP and TCTP were assessed by Western-Blot and % pTCTP (pTCTP/TCTP) was quantified.
In these studies, biomarker positivity was defined as ≥50% decrease in % pTCTP from T=0 to T=3h.

[2] = target: T1, PLK1 phosphorylation of TCTP; assay: Inhibition of pTCTP in vitro, western blot (FIG. 2B)
[3] = tested on: cell lines, both from solid as well as hematologic tumors; conditions: large number of cell lines, solid and hematologic tumors; cited from earlier work
[4] = tested on: HT29 human colon adenocarcinoma xenografts; conditions: combination with irinotecan, compared to each agent alone; cited from earlier work
xenograft tumor = conditions: mice, oral administration, well tolerated doses; cited from earlier work
[5] = target: T2, PLK1 phosphorylation of TCTP in MV4-11 and HL-60 (Homo sapiens, UniProt P53350); assay: pTCTP in AML cell lines MV4-11 and HL-60, western blot (FIG. 2C); assay type: cell-based; conditions: MV4-11 and HL-60, 15 minutes; onvansertib 0.1 or 0.5 μM, cytarabine 10 or 100 nM, decitabine 0.2 or 1 μM
T2 construct: endogenous in cells; host or cells: MV4-11 and HL-60 AML cell lines
T2 sequence (P53350 whole entry): as above
Method: as §1
as §2, with “Signal intensity (area) of pTCTP was normalized to the peak area of TCTP and reported as % pTCTP.” left out
AML cell lines MV4-11 and HL-60 were treated for 15 minutes with onvansertib (PCM-075) (0.1 or 0.5 μM), cytarabine (10 or 100 nM) or decitabine (0.2 or 1 μM). Proteins were then extracted from the cells and assessed for pTCTP.

[6] = tested on: advanced/metastatic solid tumors; conditions: adult subjects; cited from earlier work
[7] = tested on: disseminated model of AML; conditions: combination therapy with cytarabine; cited from earlier work
[8] = cited from earlier work; for half-life: oral administration
PLK1 = PLK1 (Homo sapiens, UniProt P53350); conditions: versus previous PLK inhibitors; cited from earlier work
PLK1, sequence (P53350 whole entry): as above

cancer cell lines = conditions: cited from earlier work
[9] = tested on: acute myeloid leukemia (AML); assay: Clinical response of AML patients, trial NCT03303339 (leukemic cells in blood and bone marrow); assay type: in vivo, human
Excerpt: Patient data provided herein is from patients in clinical trial NCT03303339, Onvansertib in Combination With Either Low-dose Cytarabine (LDAC) or Decitabine in Adult Patients With Acute Myeloid Leukemia (AML) (ClinicalTrials.gov).
Responders were defined as patients showing a decrease in circulating and bone marrow blasts during treatment.

[10] = combination with LDAC or decitabine

decrease of pTCTP in cells of non-responders ([1]; 5 non-responders, higher dose 18 mg/m^2): did not show a decrease of pTCTP
decrease in pTCTP ([1]; the one biomarker negative patient with objective response): 40%
inhibition of pTCTP [5]: inhibited pTCTP
SMILES: CN1CCN(c2ccc(OC(F)(F)F)c(Nc3ncc4c(n3)-c3c(c(C(N)=O)nn3CCO)CC4)c2)CC1 [onvansertib, 1-(2-hydroxyethyl)-8-{[5-(4-methylpiperazin-1-yl)-2-(trifluoromethoxy)phenyl]amino}-4,5-dihydro-1H-pyrazolo[4,3-h] quinazoline-3-carboxamide]
decrease in pTCTP in patient blood ([1]; onvansertib and LDAC): only the responder showed a decrease in pTCTP
decrease in pTCTP in patient blood ([1]; onvansertib and decitabine): only the two responders showed a decrease in pTCTP
inhibition of pTCTP in vitro [2]: inhibits pTCTP in vitro, in a dose-dependent manner
potency in proliferation assays [3]: low nanomolar activity
tumor regression [4]: enhanced tumor regression
xenograft tumor growth (xenograft tumor): inhibits xenograft tumor growth
evaluable patients with stable disease [6]: 5 of 16
recommended phase 2 dose [6]: 24 mg/m^2
survival of animals [7]: prolonged survival
half-life [8]: about 24 hours
half-life ([8]; listed as Onvansertib): ~24 h
oral bioavailability ([8]; rodent and nonrodent species): good oral bioavailability
selectivity for PLK1 (PLK1): high selectivity for PLK1 only
mitotic cell-cycle arrest followed by apoptosis (cancer cell lines): potently causes a mitotic cell-cycle arrest followed by apoptosis
biomarker positive patients with a decrease in BM blasts≥50% [9, 10]: six out of the nine
patients with complete response [CR] or CR with incomplete hematological recovery [CRi] [9, 10]: Four
patients exhibiting a response (decrease in leukemic cells in blood and bone marrow) ([9]; in combination with low-dose cytarabine (LDAC) or decitabine): Three of 6
leukemic cells in bone marrow, decrease ([9]; patient 07-009, combination with decitabine): 96% to 55%
leukemic cells in bone marrow, decrease ([9]; patient 07-011, combination with decitabine): 55% to 15%

SMILES: Nc1ccn([C@@H]2O[C@H](CO)[C@@H](O)[C@@H]2O)c(=O)n1 [cytarabine]
inhibition of pTCTP [5]: but not cytarabine or decitabine, inhibited pTCTP
